Test [1] deals with retinal ganglion cells (RGCs). In words: crush of the rat optic nerve, RGC loss and apoptotic nuclei. The class given is in vivo. The settings on record: 0.1 mg/kg subcutaneously, assessed 18 days after optic nerve crush.
Test [2] concerns retinal ganglion cells (RGCs). The test is described as follows: transient retinal ischemia by selective ligature of ophthalmic vessels, RGC rescue. The class given is in vivo. The settings on record: adult Sprague-Dawley rats; 60 minutes ischemia causing 30% RGC death seven days after ischemia; intraperitoneal injection, 0.005 mg/kg. How it is done:
In particular, in adult Sprague-Dawley rats, transient retinal ischemia induced by selective ligature of ophthalmic vessels for 60 minutes, causes a 30% RGC death seven days after ischemia.

The structures appear in SMILES notation.

Consider one compound from US20060100269A1, “Use of 10-aminoaliphatyl-dibenz[b,f]oxepines for the treatment of degenerative ocular disorders” (priority 2003, published 2006).

Regarding `C#CCN(C)CC1=Cc2ccccc2Oc2ccccc21.O=C(O)/C=C\C(=O)O` [N-(dibenz[b,f]oxepin-10-ylmethyl)-N-methyl-N-prop-2-ynylamine hydrogen maleate], in test [1], the “increase in apoptotic nuclei” value is on record as “significantly reduces” and the “loss of RGCs” value was “significantly reduces”. Further, the RGC rescue rate in test [2] worked out at 45%.
